Consider 31 compounds from patent publication US20120142771A1, “BIPHENYLACETAMIDE DERIVATIVE” (Dainippon Sumitomo Pharma Co., Ltd., priority 2008, published 2012).

Like-named read-outs stand apart in the source and are kept apart here.

Assay [1] relates to subcutaneously pentetrazol-injected model (scPTZ). As to the kind of experiment: Subcutaneously pentetrazol-injected model (scPTZ) test. It counts as in vivo, mice. Conditions: for responders at 50 mg/kg / responders at 100 mg/kg: Mus musculus, po, 1 h; for anticonvulsant action in subcutaneously pentetrazol-injected model (scPTZ) test: mice, oral 50 or 100 mg/kg. An outline of the steps: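 Pentetrazol (85 mg/kg, s.c.) was injected one hour after oral test compound at 50 or 100 mg/kg in groups of three male Slc:ddY mice weighing 20-30 g; vehicle controls got 0.5% tragacanth or 0.5% methylcellulose.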

The test system of assay [2] is maximum electroshock seizure (MES) model. The experiment in a line: Maximum electroshock seizure (MES) model test. It counts as in vivo, mice. The note with it: for responders at 50 mg/kg / responders at 100 mg/kg: Mus musculus, po, 1 h, inhibition of hind limb extension; for anticonvulsant action in maximum electroshock seizure (MES) model test: mice, oral 50 or 100 mg/kg, 1 hour after administration. An outline of the steps:
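Tonic hind-limb extension was elicited by corneal electroshock (60 Hz, 25 mA, 0.2 s) 1 h after oral dosing. Test compounds were given at 50 or 100 mg/kg to groups of 3 male Slc: ddY mice (20-30 g), vehicle controls receiving 0.5% tragacanth or 0.5% methylcellulose solution.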

[3] abbreviates: read-out: scPTZ (positive number/tested number), 50 mg/kg oral, Slc: ddY male mice, 3 per group, pentetrazol 85 mg/kg s.c. after 1 hour, observed 30 minutes for clonic convulsion.
Where [4] appears, read: read-out: scPTZ (positive number/tested number), 100 mg/kg oral, Slc: ddY male mice, 3 per group, pentetrazol 85 mg/kg s.c. after 1 hour, observed 30 minutes for clonic convulsion.
Setting [5] is: pentetrazol 85 mg/kg s.c. after 1 hour.
The mark [6] stands for this setting: read-out: MES (positive number/tested number), 50 mg/kg oral, Slc: ddY male mice, 3 per group, electrical stimulation 1 hour after administration.
Setting [7] is: read-out: MES (positive number/tested number), 100 mg/kg oral, Slc: ddY male mice, 3 per group, electrical stimulation 1 hour after administration.
Setting [8] is: 100 mg/kg oral, Slc: ddY male mice, 3 per group, pentetrazol 85 mg/kg s.c. after 1 hour, observed 30 minutes for clonic convulsion, read-out: scPTZ (positive number/tested number) (converted).
Setting [9] is: 50 mg/kg oral, Slc: ddY male mice, 3 per group, electrical stimulation 1 hour after administration, read-out: MES (positive number/tested number) (converted).
Where [10] appears, read: 100 mg/kg oral, Slc: ddY male mice, 3 per group, electrical stimulation 1 hour after administration, read-out: MES (positive number/tested number) (converted).
The mark [11] stands for this setting: 50 mg/kg oral, Slc: ddY male mice, 3 per group, pentetrazol 85 mg/kg s.c. after 1 hour, observed 30 minutes for clonic convulsion, read-out: scPTZ (positive number/tested number) (converted).

Consider `NC(=O)C(F)c1ccccc1-c1ccccc1` (stereo not drawn) [Example 162, 2-(biphenyl-2-yl)-2-fluoroacetamide], for which the responders at 50 mg/kg in assay [1] (setting [3]) and in assay [2] (setting [6]) was 100% in each case. Moreover, the responders at 100 mg/kg in assay [1] (setting [4]) and in assay [2] (setting [7]) was 100% throughout. For the same compound, in assay [1] (setting [5]), the “anticonvulsant action in subcutaneously pentetrazol-injected model (scPTZ) test” value is “anticonvulsant action was observed”. The “anticonvulsant action in maximum electroshock seizure (MES) model test” value in assay [2] is “anticonvulsant action was observed”.
Turning to `CNC(=O)C(F)c1ccccc1-c1ccccc1` (stereo not drawn) [Example 163], the results for the responders at 100 mg/kg in assay [1] (setting [8]) and in assay [2] (setting [10]) were 0% and 100%, respectively. Further, the responders at 50 mg/kg in assay [2] (setting [9]) is 33.3%.
The corresponding values for `NC(=O)C(F)c1ccccc1-c1ccccc1F` (stereo not drawn) [Example 164, 2-fluoro-2-(2′-fluorobiphenyl-2-yl)acetamide] are 33.3%, 100% and 100%.
`CNC(=O)C(F)c1ccccc1-c1ccccc1F` (stereo not drawn) [Example 165, 2-fluoro-2-(2′-fluorobiphenyl-2-yl)-N-methylacetamide]: the figures for the responders at 100 mg/kg in assay [1] (setting [8]) and in assay [2] (setting [10]) were 33.3% and 100%, respectively. Further, in assay [2] (setting [9]), the responders at 50 mg/kg was 66.7%.
In the case of `CNC(=O)C(F)c1ccccc1-c1ccc(F)cc1` (stereo not drawn) [Example 166, 2-fluoro-2-(4′-fluorobiphenyl-2-yl)-N-methylacetamide], the responders at 50 mg/kg in assay [1] (setting [11]) was 33.3%; in assay [2] (setting [9]), 66.7%. The figures for the responders at 100 mg/kg in assay [1] (setting [8]) and in assay [2] (setting [10]) were 66.7% and 100%, respectively.
For the compound `NC(=O)C(F)c1ccccc1-c1cccc(Cl)c1` (stereo not drawn) [Example 167, 2-(3′-chlorobiphenyl-2-yl)-2-fluoroacetamide], the responders at 50 mg/kg in assay [1] (setting [3]) is 66.7%; in assay [2] (setting [6]), 33.3%. Further, the responders at 100 mg/kg in assay [1] (setting [4]) and in assay [2] (setting [7]) was 100% throughout.
On to `CNC(=O)C(F)(F)c1ccccc1-c1ccccc1` [Example 168], for which the responders at 100 mg/kg in assay [1] (setting [8]) was 33.3%; in assay [2] (setting [10]), 100%. In addition, in assay [2] (setting [9]), the responders at 50 mg/kg was 33.3%.
Turning to `NC(=O)C(F)(F)c1ccccc1-c1ccccc1F` [Example 169], the responders at 100 mg/kg in assay [1] (setting [8]) is 33.3%; in assay [2] (setting [10]), 100%.
In the case of `NC(=O)C(F)(F)c1ccccc1-c1cccc(F)c1` [Example 170, 2,2-difluoro-2-(3′-fluorobiphenyl-2-yl)acetamide], the responders at 50 mg/kg in assay [1] (setting [11]) was 33.3%; in assay [2] (setting [9]), 0%. Besides, the figures for the responders at 100 mg/kg in assay [1] (setting [8]) and in assay [2] (setting [10]) were 66.7% and 100%, respectively.
The corresponding values for `NC(=O)C(F)(F)c1ccccc1-c1cccc(Cl)c1` [Example 171, 2-(3′-chlorobiphenyl-2-yl)-2,2-difluoroacetamide] are 33.3%, 100%, 100% and 100%.
For the compound `O=C(Cc1ccccc1-c1ccccc1F)NC1CC1` [Example 172], the responders at 100 mg/kg in assay [1] (setting [8]) is 0%; in assay [2] (setting [10]), 100%.
The corresponding values for `O=C(Cc1ccccc1-c1ccccc1F)NCC1CC1` [Example 173] are 0% and 33.3%.
Consider `NC(=O)C(F)(F)c1ccccc1-c1ccccc1` [Example 174, 2-(biphenyl-2-yl)-2,2-difluoroacetamide], for which the responders at 50 mg/kg in assay [1] (setting [11]) was 33.3%; in assay [2] (setting [9]), 100%. For the same compound, the responders at 100 mg/kg in assay [1] (setting [8]) is 66.7%; in assay [2] (setting [10]), 100%.
For the compound `CC(C(N)=O)c1ccccc1-c1cccc(F)c1` (stereo not drawn) [Example 175, 2-(3′-fluorobiphenyl-2-yl)propanamide], the responders at 50 mg/kg in assay [1] (setting [11]) and in assay [2] (setting [9]) was 0% throughout. Moreover, the responders at 100 mg/kg in assay [1] (setting [8]) is 100%; in assay [2] (setting [10]), 66.7%.
With `CNC(=O)C(C)c1ccccc1-c1cccc(F)c1` (stereo not drawn) [Example 176], the responders at 100 mg/kg in assay [1] (setting [8]) is 0%; in assay [2] (setting [10]), 33.3%.
The corresponding values for `CC(C(N)=O)c1ccccc1-c1cccc(Cl)c1` (stereo not drawn) [Example 177] are 33.3% and 0%.
On to `NC(=O)C(O)c1ccccc1-c1ccc(F)cc1` (stereo not drawn) [Example 179], for which the responders at 100 mg/kg in assay [1] (setting [8]) is 33.3%; in assay [2] (setting [10]), 100%. In addition, in assay [2] (setting [9]), the responders at 50 mg/kg is 33.3%.
`NC(=O)C(O)c1ccccc1-c1cccc(Cl)c1` (stereo not drawn) [Example 180]: the responders at 100 mg/kg was 33.3% in assay [1] (setting [8]) and 100% in assay [2] (setting [10]). Also, the responders at 50 mg/kg in assay [2] (setting [9]) is 33.3%.
Consider `NC(=O)C(O)c1ccc(F)cc1-c1ccccc1` (stereo not drawn) [Example 181, 2-(5-fluorobiphenyl-2-yl)-2-hydroxyacetamide], for which the responders at 50 mg/kg in assay [1] (setting [11]) was 0%; in assay [2] (setting [9]), 33.3%. Moreover, the responders at 100 mg/kg in assay [1] (setting [8]) is 66.7%; in assay [2] (setting [10]) it was 100%.
The corresponding values for `NC(=O)C(O)c1ccc(F)cc1-c1cccc(F)c1` (stereo not drawn) [Example 182, 2-(3′,5-difluorobiphenyl-2-yl)-2-hydroxyacetamide] are 0%, 33.3%, 100% and 100%.
`NC(=O)C(O)c1ccc(F)cc1-c1cc(Cl)cc(Cl)c1` (stereo not drawn) [Example 184, 2-(3′,5′-dichloro-5-fluorobiphenyl-2-yl)-2-hydroxyacetamide]: the figures for the responders at 50 mg/kg in assay [1] (setting [11]) and in assay [2] (setting [9]) were 33.3% and 66.7%, respectively. In addition, the responders at 100 mg/kg in assay [1] (setting [8]) is 66.7%; in assay [2] (setting [10]), 100%.
For the compound `NC(=O)C(O)c1cc(F)ccc1-c1ccccc1` (stereo not drawn) [Example 186, 2-(4-fluorobiphenyl-2-yl)-2-hydroxyacetamide], the responders at 50 mg/kg in assay [1] (setting [11]) is 66.7%; in assay [2] (setting [9]) it was 100%. The responders at 100 mg/kg is 66.7% in assay [1] (setting [8]) and 100% in assay [2] (setting [10]). Moreover, the “anticonvulsant action in subcutaneously pentetrazol-injected model (scPTZ) test” value in assay [1] (setting [5]) is “anticonvulsant action was observed”. Further, the “anticonvulsant action in maximum electroshock seizure (MES) model test” value in assay [2] is listed as “anticonvulsant action was observed”.
Regarding `NC(=O)C(O)c1cc(F)ccc1-c1ccccc1F` (stereo not drawn) [Example 187], the responders at 100 mg/kg is 0% in assay [1] (setting [8]) and 100% in assay [2] (setting [10]).
For the compound `NC(=O)C(O)c1cc(F)ccc1-c1cccc(F)c1` (stereo not drawn) [Example 188, 2-(3′,4-difluorobiphenyl-2-yl)-2-hydroxyacetamide], the responders at 50 mg/kg in assay [1] (setting [11]) was 0%; in assay [2] (setting [9]) it was 33.3%. Moreover, the responders at 100 mg/kg in assay [1] (setting [8]) was 66.7%; in assay [2] (setting [10]), 100%.
The corresponding values for `NC(=O)C(O)c1ccccc1-c1cc(F)cc(Cl)c1` (stereo not drawn) [Example 191, 2-(3′-chloro-5′-fluorobiphenyl-2-yl)-2-hydroxyacetamide] are 33.3%, 100%, 100% and 100%.
Turning to `NC(=O)C(O)c1ccccc1-c1cc(F)ccc1F` (stereo not drawn) [Example 192], the responders at 100 mg/kg is 33.3% in assay [1] (setting [8]) and 100% in assay [2] (setting [10]).
Regarding `NC(=O)C(O)c1ccccc1-c1cc(F)c(F)c(F)c1` (stereo not drawn) [Example 193, 2-hydroxy-2-(3′,4′,5′-trifluorobiphenyl-2-yl)acetamide], the responders at 50 mg/kg in assay [1] (setting [11]) and in assay [2] (setting [9]) was 100% each time. The figures for the responders at 100 mg/kg in assay [1] (setting [8]) and in assay [2] (setting [10]) were 66.7% and 100%, respectively.
`NC(=O)C(O)c1ccccc1-c1cc(Cl)ccc1F` (stereo not drawn) [Example 194, 2-(5′-chloro-2′-fluorobiphenyl-2-yl)-2-hydroxyacetamide]: the responders at 50 mg/kg in assay [1] (setting [11]) and in assay [2] (setting [9]) was 33.3% throughout. The values for the responders at 100 mg/kg in assay [1] (setting [8]) and in assay [2] (setting [10]) were 66.7% and 100%, respectively.
On to `NC(=O)C(O)c1ccccc1-c1ccc(Cl)c(C(F)(F)F)c1` (stereo not drawn) [Example 195], for which the responders at 100 mg/kg in assay [1] (setting [8]) was 33.3%; in assay [2] (setting [10]), 100%.
As for `COC(C(N)=O)c1ccccc1-c1cccc(F)c1` (stereo not drawn) [Example 199], the responders at 100 mg/kg is 33.3% in assay [1] (setting [8]) and 100% in assay [2] (setting [10]). Also, the responders at 50 mg/kg in assay [2] (setting [9]) is 33.3%.
Take `COC(C(N)=O)c1ccccc1-c1ccccc1F` (stereo not drawn) [Example 200, 2-(2′-fluorobiphenyl-2-yl)-2-methoxyacetamide]: the values for the responders at 50 mg/kg in assay [1] (setting [11]) and in assay [2] (setting [9]) were 33.3% and 0%, respectively. Moreover, the values for the responders at 100 mg/kg in assay [1] (setting [8]) and in assay [2] (setting [10]) were 66.7% and 100%, respectively.
